Results: PMC9154793, “Design, synthesis, and biological evaluation of triazole-pyrimidine-methylbenzonitrile derivatives as dual A2A/A2B adenosine receptor antagonists” (Journal of Enzyme Inhibition and Medicinal Chemistry, 2022)
Entries after “also recorded” stand apart in the source; their conditions may differ.

How the values were obtained:
[1] = Metabolic stability in human liver microsomes; type: in vitro ADME
Method: The metabolic stability is an important focus for further compound optimisation. Compounds 7f, 7i, and AB928 were chosen to evaluate the stability in rat liver microsomes and human liver microsomes. For the microsomal metabolic experiment, 7-ethoxycoumarin (7-EC) was used as a control. As shown in Table 4 (see Supporting information for raw data), the CLint(liver) of 7-EC in rats and humans was 10.0 and 9.0 ml/min/g liver, respectively, indicating the experimental test system was reliable.
Metabolic stabilities of compounds 7f, 7i, and AB928 in liver microsomes were studied with pooled human (male) liver microsomes solution (20 mg/ml) and male Sprague–Dawley rats pooled liver microsomes solution (20 mg/ml) purchased from Research Institute for Liver Diseases (Shanghai) Co. Ltd. Both liver microsomes solutions (140 μl) were diluted by 3948 μl of water and 280 μl of phosphate buffered saline. The assay procedure: 640 μl of diluted liver microsomes solution was added to a solution of compound working solution (16 μl, 25 μM in DMSO) and the mixed solution was incubated at 37 °C for 5 min. Then 160 μl of NADPH generating system was added and take out 100 μl from the mixed solution was added 200 μl of acetonitrile solution to stop the reaction at the set incubation time (0 min, 10 min, 20 min, 30 min, 40 min, 50 min, and 60 min). All stopped reaction solutions were vortex mixed (3 min) and centrifuged (10,000 rpm, 4 °C for 10 min). Then 50 μl of the supernatant was analysed by UPLC-MS/MS system (details of the analytical method see Supporting information). […]
8. Metabolic stability in human and rat liver microsomes
Metabolic stabilities of compounds 7f, 7i and AB928 in liver microsomes were studied with pooled human (male) liver microsomes solution (20 mg/mL) and male Sprague - Dawley rats pooled liver microsomes solution (20 mg/mL) purchased from Research Institute for Liver Diseases (Shanghai) Co. Ltd. Both liver microsomes solutions (140 μL) were diluted by 3948 μL of water and 280 μL of phosphate buffered saline. The assay procedure: 640 μL of diluted liver microsomes solution was added to a solution of compound working solution (16 μL, 25 μM in DMSO) and the mixed solution was […]
(1 picture or pasted object on this page, not shown here) […]
incubated at 37 ℃ for 5 min. Then 160 μL of NADPH generating system was added and take out 100 μL from the mixed solution was added 200 μL of acetonitrile solution to stop the reaction at the set incubation time (0 min, 10 min, 20 min, 30 min, 40 min, 50 min, and 60 min). All stopped reaction solutions were vortex mixed (3 min) and centrifuged (10000 rpm, 4 ℃ for 10 min). Then 50 μL of the supernatant was analyzed […]
8.2 Chromatography and mass spectrometry conditions
UPLC was performed using an […] UPLC system (Waters, Milford, MA, […]
USA). Separation was achieved on a Waters BEH C18 column(100 mm × 2.1 mm， 1.7 μm) at 40 ℃. The injection volume of the sample solution was 5 μL. The mobile phase consisted of water (0.1% formic acid and ammonium acetate) and acetonitrile solution (20:80, v/v) at a flow rate of 0.4 mL/min within a running time of 6 min. Mass spectrometric analysis was performed on a Waters Xevo TQ-S triple quadrupole instrument using electrospray ionization in positive mode. Quantification was performed using multiple reaction monitoring (MRM) mode to monitor precursor-product ion transitions (Table S1).
Table S1. Conditions of MRM Detection. […]
Table S2. Raw data of metabolic stability in human and rat liver microsomes. […]
(min) Hum Rat Hum Rat Hum Rat Hum Rat
9. Analytical method of pharmacokinetics assay
Animal experiments were performed according to the institutional ethical guidelines on animal care and approved by the Institute Animal Care and Use Committee at Binzhou […]
Female Bal b/c mice (sourced from Jinan Pengyue Experimental Animal Breeding […]

PBMCs = experiment: T-cell activation assay (IL-2 production in PBMCs, NECA-suppressed, anti-CD3/anti-CD28); type: cell-based; conditions: 10, 100, 1000 nM antagonist with 1000 nM NECA; ELISA after 48 h; Figure 3
Method: The effector functions of T cells that express A2 ARs can be evaluated by measuring specific cytokine production[4]^,[9]^,[38]. In this study, the efficiencies of selected antagonists on IL-2 production (T cell activation) were examined. […] However, when the antagonist was added, the concentration of IL-2 was restored, indicating the inhibition effect of NECA was blocked.
Figure 3. The efficiencies of selected compounds for IL-2 production. The efficiencies of selected antagonists on T-cell activation at 10 nM, 100 nM, and 1000 nM were tested in the presence or absence of 1000 nM NECA. The DMSO control was tested in the absence of both antagonists and NECA. The NECA control was tested without antagonists in the presence of 1000 nM NECA.
Cryopreserved PBMCs (Allcells) were thawed and recovered in RPMI1640 medium overnight before being used. And compounds to be tested were diluted with DMSO to 100 folds of working concentrations. Then PBMCs were added to 96-well U bottom plate (2.5 × 10^5 cells per well). To the cells, 2 μl of NECA and 2 μl of each diluted compound (a final concentration of DMSO is 2%) were added. Then, cells were incubated at 37 °C under 5% CO2 for 1 h. Add 100 μl anti-CD3 (2 μg/ml) and anti-CD28 antibody (2 μg/ml) to each well and cells were cultured for 48 h. After 48 h, supernatants were collected and IL-2 concentration was detected by ELISA.

Row | Compound | metabolism on human liver microsomes (in words) [1] | remaining at 10 min, 0.49 µM ([1]; male, human, microsomes) | remaining at 20 min, 0.49 µM ([1]; male, human, microsomes) | remaining at 0.5 h, 0.49 µM ([1]; male, human, microsomes) | remaining at 40 min, 0.49 µM ([1]; male, human, microsomes) | remaining at 50 min, 0.49 µM ([1]; male, human, microsomes) | remaining at 1 h, 0.49 µM ([1]; male, human, microsomes) | IL-2 production (T cell activation) (PBMCs) | CLint(liver) Hum ([1]; human, microsomes) | half-life at 0.49 µM ([1]; male, human, microsomes)
1 | Cc1c(C#N)cccc1-c1cc(-c2cn(Cc3cccc(C#N)n3)nn2)nc(N)n1 [Compound 7f, 6-((4-(2-Amino-6-(3-cyano-2-methylphenyl)pyrimidin-4-yl)-1H-1,2,3-triazol-1-yl)methyl)picolinonitrile] | hardly metabolised on human liver microsomes | 96.3% | 96.5% | 107% | 98.4% | 102% | 105% | sufficient activities to stimulate IL-2 production |  | 
2 | Cc1c(C#N)cccc1-c1cc(-c2cn(Cc3cccc(C(N)=O)n3)nn2)nc(N)n1 [Compound 7i, 6-((4-(2-Amino-6-(3-cyano-2-methylphenyl)pyrimidin-4-yl)-1H-1,2,3-triazol-1-yl)methyl)picolinamide] | hardly metabolised on human liver microsomes | 98% | 108% | 116% | 101% | 95% | 98.8% | sufficient activities to stimulate IL-2 production; also recorded: better activity than AB928 | 0.06 mL/min/g | 19.2 h
